{"source": "patent US20220000811A1", "about": "“COMPOSITION FOR PROMOTING HAIR GROWTH COMPRISING A GUANINE DERIVATIVE” (KOREA RESEARCH INSTITUTE OF BIOSCIENCE AND BIOTECHNOLOGY, priority 2019, published 2022)", "key": {"[1]": {"test_system": "mouse embryonic fibroblasts (MEFs)", "test": "Reprogramming into iPSCs (OSKM) in mouse embryonic fibroblasts, AP staining", "type": "cell-based", "conditions": "MEFs; for enhancing reprogramming efficiency: 14 days", "protocol": "During reprogramming into iPSCs by introducing OSKM reprogramming factor into mouse embryonic fibroblasts (MEFs), rotenone, the guanidine derivatives of the present invention, and phenformin were treated at the indicated concentrations. After 14 days, alkaline phosphatase (AP) staining was performed (FIG. 2A), and the number of AP^+ colonies was quantified (FIG. 2b). […] In the subsequent experiment, additional efficacy was evaluated using only the three compounds showing the effective reprogramming-enhancing effect."}, "[2]": {"test_system": "human embryonic stem cells (hESCs)", "test": "Maintaining stemness of human embryonic stem cells in unconditioned medium, AP staining", "type": "cell-based", "conditions": "for improvement of effect of maintaining stemness: hESCs in UM", "protocol": "Additionally, the effect of the compounds of the present invention on maintaining sternness of human embryonic stern cells (hESCs) was confirmed (FIG. 4). Specifically, when hESCs were cultured in an unconditioned medium (UM), the sternness was lost, and AP activity was weakened (FIG. 4a). […] In particular, when IM176OUT05 was treated at 10 nM and 100 nM concentrations, it was confirmed that the effect of maintaining the sternness was improved by 7.6 times and 8.2 times, respectively (FIG. 4b)."}, "[3]": {"test_system": "C57BL/6 mice", "test": "Hair regeneration model, darkness of dorsal skin and hair growth", "type": "in vivo, mouse", "protocol": "(§1) During the hair telogen phase, the hair on the dorsal skin of 7-week-old C57BL/6 mice (Dae Han BioLink, Chungbuk, Republic of Korea) was depilated using an animal clipper and wax (Veet, Oxy Reckitt Benckiser, Seoul, Republic of Korea). From the next day, 200 μL of placebo (control), 1% IM, 1% minoxidil, or 1% metformin was applied daily to the depilated area using a sterile cotton swab. Images of each animal were captured daily, and the degree of darkness of the color on dorsal skin was quantified in the same area (1.6 cm×3 cm) using the Image J program. The mice were sacrificed, and skin tissues on days 0, 7, 14, and 20 were obtained. Half of the tissues were used for RNA isolation, and the other half were fixed with 4% paraformaldehyde overnight for histochemical analysis. It was confirmed whether the IM compound can promote hair growth without showing toxicity or other side effects through mouse experiments. In 7-week-old C57BL/6 mice, the telogen phase was motivated by hair removal, and various concentrations of IM were applied topically to the dorsal skin of the mice daily."}, "[4]": {"test_system": "K15/β-catenin, Ki67/Shh, K15/PDK, Ki67/PDH populations", "test": "FACS analysis of single skin cells", "type": "in vivo, mouse", "protocol": "During the hair telogen phase, the hair on the dorsal skin of 7-week-old C57BL/6 mice (Dae Han BioLink, Chungbuk, Republic of Korea) was depilated using an animal clipper and wax (Veet, Oxy Reckitt Benckiser, Seoul, Republic of Korea). From the next day, 200 μL of placebo (control), 1% IM, 1% minoxidil, or 1% metformin was applied daily to the depilated area using a sterile cotton swab. Images of each animal were captured daily, and the degree of darkness of the color on dorsal skin was quantified in the same area (1.6 cm×3 cm) using the Image J program. The mice were sacrificed, and skin tissues on days 0, 7, 14, and 20 were obtained. Half of the tissues were used for RNA isolation, and the other half were fixed with 4% paraformaldehyde overnight for histochemical analysis. After the mice were perfused with PBS to remove blood, the skin tissue was harvested and cut into small pieces. The tissue was digested with trypsin (Thermo Fisher Scientific) at 37° C. for 150 minutes, then filtered through a 75 μm nylon mesh, followed by filtering through a 30 μm mesh (BD Biosciences). Single cells were fixed, permeabilized, and blocked according to the immunostaining protocol. The cells were stained with specific antibodies (Table 1 above) and analyzed with BD Accuri™ C6 (BD Biosciences)"}, "[5]": {"test_system": "HK2, LDHA, NDUS3, ATP5B, Wnt1a, Lef-1, Gli-1, versican", "test": "Expression of genes related to metabolism and hair regeneration in skin tissue", "type": "in vivo, mouse", "protocol": "as §1, with “The level of expression of genes related to metabolism and hair regeneration” for “It”, “analyzed through” for “confirmed whether”, “skin tissue of each” for “IM compound can promote hair growth without showing toxicity or other side effects through”, “group.” for “experiments. In 7-week-old C57BL/6 mice, the telogen phase was motivated by hair removal, and various concentrations of IM were applied topically to the dorsal skin of the mice daily.”"}, "[6]": {"test_system": "auricle", "test": "Auricle punch analysis (auricular tissue repair)", "type": "in vivo, mouse", "conditions": "2 mm ear punch holes, daily topical application, indicated concentrations", "protocol": "For the auricular tissue repair analysis, three holes with a diameter of 2 mm were drilled in each ear using a punching instrument (Fine Science Tools, British Columbia, Canada). IM at the indicated concentration was applied daily with a sterile cotton swab. The hole area was measured with digital calipers (VWR, Radnor, Pa., USA)."}}}
{"smiles": "Cc1ccccc1CCNC(=N)NC(=N)N", "note": "[IM176OUT05, N-1-(2-methyl)phenethylbiguanide]", "values": [{"measurement": "enhancing reprogramming efficiency", "setting": "[1]; 10 nM", "value": 16.8, "unit": "times"}, {"measurement": "enhancing reprogramming efficiency", "setting": "[1]; 20 nM", "value": 13.9, "unit": "times"}, {"measurement": "enhancing reprogramming efficiency", "setting": "[1]; 50 nM", "value": 13.7, "unit": "times"}, {"measurement": "effect on reprogramming, number of AP+ colonies", "setting": "[1]; OSKM, after 14 days, indicated concentrations", "value": "increased"}, {"measurement": "improvement of effect of maintaining stemness", "setting": "[2]; 10 nM", "value": 7.6, "unit": "times"}, {"measurement": "improvement of effect of maintaining stemness", "setting": "[2]; 100 nM", "value": 8.2, "unit": "times"}, {"measurement": "AP staining (stemness)", "setting": "[2]; hESCs in unconditioned medium, low dose", "value": "increase in AP staining"}, {"measurement": "black pigmentation and hair growth", "setting": "[3]; 1% topical daily on dorsal skin, day 9", "value": "remarkably observed"}, {"measurement": "hair growth, male and female mice", "setting": "[3]; 1% topical daily, comparison with minoxidil", "value": "promoted hair growth in both male and female mice"}, {"measurement": "skin color compared to control or minoxidil-treated mice", "setting": "[3]; 1% topical daily, day 8", "value": "clearly darkened"}, {"measurement": "hair growth", "setting": "[3]; 1% topical daily, day 10", "value": "markedly promoted"}, {"measurement": "hair growth in female mice", "setting": "[3]; 1% topical daily, female mice", "value": "strong promoting effect"}, {"measurement": "effect compared to minoxidil, independent experiment", "setting": "[3]; female mice", "value": "excellent effect as compared to minoxidil"}, {"measurement": "K15+/PDK+ population in single skin cells", "setting": "[4]; day 7, FACS", "value": 5.9, "unit": "%"}, {"measurement": "K15+/β-catenin+ population in single skin cells", "setting": "[4]; day 7, FACS", "value": 11.7, "unit": "%"}, {"measurement": "Ki67+/PDH+ population", "setting": "[4]; day 7, FACS", "value": 13.7, "unit": "%"}, {"measurement": "increase of K15+/β-catenin+ population compared to control", "setting": "[4]; day 7, FACS", "value": 3.7}, {"measurement": "increase of glycolytic stem cell population (K15+/PDK+) compared to control", "setting": "[4]; day 7, FACS", "value": "at least 6.6 times"}, {"measurement": "Ki67+/Shh+ population in single skin cells", "setting": "[4]; day 20, FACS", "value": 36.7, "unit": "%"}, {"measurement": "PDK+ cell population and Ki67+ cell population", "setting": "[4]; day 20, FACS", "value": "increased"}, {"measurement": "increase of Ki67+/Shh+ population compared to control", "setting": "[4]; day 20, FACS", "value": 2.7, "unit": "times"}, {"measurement": "separated populations of PDH+ cells and K15+ cells", "setting": "[4]; day 20, FACS", "value": "increased"}, {"measurement": "expression of stemness-related genes (Wnt1a, Lef-1, Gli-1, and versican)", "setting": "[5]; day 7, skin", "value": "significantly upregulated"}, {"measurement": "expression of glycolysis-related enzymes (HK2 and LDHA)", "setting": "[5]; day 7, skin tissue", "value": "significantly induced"}, {"measurement": "stemness-related genes compared to control", "setting": "[5]; day 20, skin", "value": "significantly induced"}, {"measurement": "expression of OXPHOS-related enzymes (NDUS3 and ATP5B) compared to control", "setting": "[5]; day 20, skin tissue", "value": "increased"}, {"measurement": "expression of glycolysis-related enzymes (HK2 and LDHA) compared to control", "setting": "[5]; day 20, skin tissue", "value": "significantly increased"}, {"measurement": "wound area of the auricle", "setting": "[6]", "value": "reduced the wound area of the auricle in a dose-dependent manner"}]}
